Results as given in ChEMBL document CHEMBL4483862, “Open-source discovery of chemical leads for next-generation chemoprotective antimalarials” (2018).

Tested on: Plasmodium berghei
Test: Luciferase/luciferin-expressing antifolate-resistant parasites were used to infect a culture of HepG2 cells that were pre-incubated with compounds. Infected hepatocytes emit light due to the luciferase reaction. Assay results are presented as the percent inhibition of light emission compared to control. […]
Type: functional
Conditions: sporozoite; for IC90: read-out: LUCIFERASE INFECTION ASSAY - IC90

Structure (SMILES) | IC90 [µM] | further results
O=C(Nc1ccccc1Cc1ccccc1)c1ccccc1NS(=O)(=O)c1ccc(Cl)s1 | 3.48 | IC50 (FFLUC_HILL_SLOPE 7.32, FFLUC_R_SQUARED 0.665, HEPG2TOX_HILL_SLOPE 2.07, HEPG2TOX_R_SQUARED 0.984, PBLUC_HILL_SLOPE 54.5, PBLUC_R_SQUARED 0.445, read-out: LUCIFERASE INFECTION ASSAY - IC50): 3.34 µM
O=C(c1cccc(C(F)(F)F)c1)N1CCc2c([nH]c3ccccc23)C1C(F)(F)F (configuration not stated) | > 8 | IC50 (FFLUC_HILL_SLOPE 6.83, FFLUC_R_SQUARED 0.392, HEPG2TOX_HILL_SLOPE 7.06, HEPG2TOX_R_SQUARED 0.861, PBLUC_HILL_SLOPE 3.46, PBLUC_R_SQUARED 0.38, read-out: LUCIFERASE INFECTION ASSAY - IC50): 4.59 µM
c1ccc(-c2nc(-c3ccccc3)c(-c3ccccc3)o2)cc1 | > 11.1 | IC50 (FFLUC_HILL_SLOPE 6.72, FFLUC_R_SQUARED 0.191, read-out: LUCIFERASE INFECTION ASSAY - IC50): > 11.1 µM
CNC(=O)c1ccc(CN(Cc2ccco2)C(=O)Cc2ccc(-c3ccccc3)cc2)cc1 | > 10 | IC50 (FFLUC_HILL_SLOPE 7.09, FFLUC_R_SQUARED 0.0104, PBLUC_HILL_SLOPE 1.93, PBLUC_R_SQUARED 0.808, read-out: LUCIFERASE INFECTION ASSAY - IC50): 3.68 µM
CC(=O)c1ccc(NC(=O)N2[C@@H]3CC[C@@H](C3)[C@H]2c2nc3cccc(OCc4ccc(F)cc4)c3[nH]2)cc1 | > 10 | IC50 (FFLUC_HILL_SLOPE 7.32, FFLUC_R_SQUARED 0.306, PBLUC_HILL_SLOPE 12.2, PBLUC_R_SQUARED 0.357, read-out: LUCIFERASE INFECTION ASSAY - IC50): 9.72 µM
O=C(Nc1ncccc1O)c1ccc(N2CCOCC2)nc1 | 4.08 | IC50 (FFLUC_HILL_SLOPE 6.17, FFLUC_R_SQUARED 0.111, PBLUC_HILL_SLOPE 1.25, PBLUC_R_SQUARED 0.907, read-out: LUCIFERASE INFECTION ASSAY - IC50): 0.705 µM
Cc1cccc(C)c1N(C(=O)CC(c1ccccc1)c1ccccc1)c1nc2ccccc2s1 | > 10 | IC50 (FFLUC_HILL_SLOPE 6.55, FFLUC_R_SQUARED 0.86, PBLUC_HILL_SLOPE 3.66, PBLUC_R_SQUARED 0.235, read-out: LUCIFERASE INFECTION ASSAY - IC50): 7.33 µM
COc1ccc(C(=O)/C(=C\c2ccc([N+](=O)[O-])cc2)c2nc3ccccc3[nH]2)cc1 | 9.32 | IC50 (FFLUC_HILL_SLOPE 7.19, FFLUC_R_SQUARED 0.76, HEPG2TOX_HILL_SLOPE 6.54, HEPG2TOX_R_SQUARED 0.945, PBLUC_HILL_SLOPE 13.7, PBLUC_R_SQUARED 0.214, read-out: LUCIFERASE INFECTION ASSAY - IC50): 7.93 µM
CC(Nc1ccc(Oc2ccc(Br)cc2)cc1)C(=O)Nc1ccc(S(N)(=O)=O)cc1 (configuration not stated) | > 10 | IC50 (FFLUC_HILL_SLOPE 6.08, FFLUC_R_SQUARED 0.0812, PBLUC_HILL_SLOPE 2.58, PBLUC_R_SQUARED 0.863, read-out: LUCIFERASE INFECTION ASSAY - IC50): 4.82 µM
CN(C)c1ccc(-c2cnc3cnc(-c4cnn(Cc5ccccc5)c4)cn23)cc1 | > 8.37 | IC50 (FFLUC_HILL_SLOPE 6.21, FFLUC_R_SQUARED 0.0566, PBLUC_HILL_SLOPE 1.47, PBLUC_R_SQUARED 0.566, read-out: LUCIFERASE INFECTION ASSAY - IC50): 3.91 µM
COc1ccc(NS(=O)(=O)c2cccc(C(=O)N/N=C(\c3ccccc3)c3ccccn3)c2)cc1 | 6.62 | IC50 (FFLUC_HILL_SLOPE 6.58, FFLUC_R_SQUARED 0.0766, HEPG2TOX_HILL_SLOPE 0.953, HEPG2TOX_R_SQUARED 0.956, PBLUC_HILL_SLOPE 1.34, PBLUC_R_SQUARED 0.562, read-out: LUCIFERASE INFECTION ASSAY - IC50): 1.29 µM
O=C(Nc1ccccc1)c1ccc(CN2C(=O)NC(c3ccccc3)(c3ccccc3)C2=O)cc1 | 3.94 | IC50 (FFLUC_HILL_SLOPE 6.57, FFLUC_R_SQUARED 0.404, PBLUC_HILL_SLOPE 14.6, PBLUC_R_SQUARED 0.481, read-out: LUCIFERASE INFECTION ASSAY - IC50): 3.39 µM
C#CCSc1nc2ccc(Cl)cc2c(=O)n1-c1cc(OC(C)C)c(Cl)cc1Cl | > 7.27 | IC50 (FFLUC_HILL_SLOPE 5.89, FFLUC_R_SQUARED 0.859, HEPG2TOX_HILL_SLOPE 0.407, HEPG2TOX_R_SQUARED 0.572, PBLUC_HILL_SLOPE 3.96, PBLUC_R_SQUARED 0.341, read-out: LUCIFERASE INFECTION ASSAY - IC50): 5.27 µM
CC(=O)N1CCN(c2nc(CC(C)C)c3c(c2C#N)CCCC3)CC1 | > 9.69 | IC50 (FFLUC_HILL_SLOPE 6.37, FFLUC_R_SQUARED 0.032, PBLUC_HILL_SLOPE 12.2, PBLUC_R_SQUARED 0.0332, read-out: LUCIFERASE INFECTION ASSAY - IC50): 8.99 µM
Cc1[nH]ncc1CCCNc1nc(C(F)(F)F)nc2ccccc12 | > 10 | IC50 (FFLUC_HILL_SLOPE 6.95, FFLUC_R_SQUARED 0.127, read-out: LUCIFERASE INFECTION ASSAY - IC50): > 10 µM
COc1ccc(S(=O)(=O)Nc2ccc3c(c2)CS(=O)(=O)C3)cc1 | > 9.34 | IC50 (FFLUC_HILL_SLOPE 6.24, FFLUC_R_SQUARED 0.631, read-out: LUCIFERASE INFECTION ASSAY - IC50): > 9.34 µM

Structure (SMILES) | IC90 [µM] | further results
CC(C)n1c(Sc2ncc([N+](=O)[O-])s2)nc2ccccc21 | 4.36 | IC50 (FFLUC_HILL_SLOPE 5.73, FFLUC_R_SQUARED 0.583, HEPG2TOX_HILL_SLOPE 3.25, HEPG2TOX_R_SQUARED 0.992, PBLUC_HILL_SLOPE 9.74, PBLUC_R_SQUARED 0.283, read-out: LUCIFERASE INFECTION ASSAY - IC50): 3.48 µM
O=C(COC(=O)/C=C/c1ccc(I)o1)Nc1cc(S(=O)(=O)N2CCCCC2)ccc1Cl | > 10 | IC50 (FFLUC_HILL_SLOPE 7.36, FFLUC_R_SQUARED 0.327, read-out: LUCIFERASE INFECTION ASSAY - IC50): > 10 µM
CCOC(=O)N1C/C(=C/c2cccc(O)c2)C(=O)/C(=C/c2cccc(O)c2)C1 | 9.23 | IC50 (FFLUC_HILL_SLOPE 6.86, FFLUC_R_SQUARED 0.64, HEPG2TOX_HILL_SLOPE 2, HEPG2TOX_R_SQUARED 0.958, PBLUC_HILL_SLOPE 1.44, PBLUC_R_SQUARED 0.817, read-out: LUCIFERASE INFECTION ASSAY - IC50): 2.02 µM
FC(F)(F)c1cccc(Nc2nccc3nc(-c4ccccc4Cl)[nH]c23)c1 | > 10 | IC50 (FFLUC_HILL_SLOPE 7.35, FFLUC_R_SQUARED 0.132, HEPG2TOX_HILL_SLOPE 0.352, HEPG2TOX_R_SQUARED 0.695, PBLUC_HILL_SLOPE 1.25, PBLUC_R_SQUARED 0.396, read-out: LUCIFERASE INFECTION ASSAY - IC50): 3.07 µM
Cc1ccccc1CN1CCN2C=C(C(=O)Nc3cccc(OC(F)(F)F)c3)OC2=NC1=O | > 10 | IC50 (FFLUC_HILL_SLOPE 6.71, FFLUC_R_SQUARED 0.0114, read-out: LUCIFERASE INFECTION ASSAY - IC50): > 10 µM
CCc1nc(SCC(=O)Nc2nsc(-c3ccc(C(C)(C)C)cc3)n2)c2c3c(sc2n1)CCC3 | > 10 | IC50 (FFLUC_HILL_SLOPE 7.48, FFLUC_R_SQUARED 0.446, read-out: LUCIFERASE INFECTION ASSAY - IC50): > 10 µM
CSc1nccc(-c2ccc(Cl)cc2)n1 | > 13.9 | IC50 (FFLUC_HILL_SLOPE 5.64, FFLUC_R_SQUARED 0.137, read-out: LUCIFERASE INFECTION ASSAY - IC50): > 13.9 µM
Cc1cccc(CNc2nc3cnc(Nc4cccc(O)c4)cc3n2C)c1 | > 10 | IC50 (FFLUC_HILL_SLOPE 6.96, FFLUC_R_SQUARED 0.0526, HEPG2TOX_HILL_SLOPE 13.6, HEPG2TOX_R_SQUARED 0.973, PBLUC_HILL_SLOPE 10.5, PBLUC_R_SQUARED 0.188, read-out: LUCIFERASE INFECTION ASSAY - IC50): 8.85 µM
CC(C)c1ccc(-c2cnc3sc(NCc4ccncc4)nn23)cc1 | > 9.44 | IC50 (FFLUC_HILL_SLOPE 6.11, FFLUC_R_SQUARED 0.0312, HEPG2TOX_HILL_SLOPE 0.148, HEPG2TOX_R_SQUARED 0.0475, read-out: LUCIFERASE INFECTION ASSAY - IC50): > 9.44 µM
COC(=O)c1sc(SCCOC(=O)Nc2ccc(OC(F)(F)F)cc2)c2c1CC(C)(C)CC2=O | > 6.38 | IC50 (FFLUC_HILL_SLOPE 7.12, FFLUC_R_SQUARED 0.0522, read-out: LUCIFERASE INFECTION ASSAY - IC50): > 6.38 µM
Cc1ccnc(SCc2cc(=O)n3nc(C)c(-c4ccc(F)cc4)c3[nH]2)n1 | > 8.65 | IC50 (FFLUC_HILL_SLOPE 7.05, FFLUC_R_SQUARED 0.398, PBLUC_HILL_SLOPE 2.1, PBLUC_R_SQUARED 0.785, read-out: LUCIFERASE INFECTION ASSAY - IC50): > 8.65 µM
OC1CCC(Nc2nn3c(-c4cccc(OC(F)(F)F)c4)cnc3s2)CC1 (configuration not stated) | > 8.28 | IC50 (FFLUC_HILL_SLOPE 6.8, FFLUC_R_SQUARED 0.0322, read-out: LUCIFERASE INFECTION ASSAY - IC50): > 8.28 µM
CCC(CNC(=O)NCC(=O)Nc1cc(Cl)ccc1Cl)c1ccccc1 (configuration not stated) | > 10 | IC50 (FFLUC_HILL_SLOPE 6.98, FFLUC_R_SQUARED 0.07, read-out: LUCIFERASE INFECTION ASSAY - IC50): > 10 µM
COC(=O)c1ccccc1SCC(C)=O | > 14.7 | IC50 (FFLUC_HILL_SLOPE 5.95, FFLUC_R_SQUARED 0.0707, PBLUC_HILL_SLOPE 4.71, PBLUC_R_SQUARED 0.0859, read-out: LUCIFERASE INFECTION ASSAY - IC50): 14 µM
Cc1cc(OCCN(C)C)cc2c1C1CCC3(C)C(=O)CCC3C1C=C2 (configuration not stated) | > 9.34 | IC50 (FFLUC_HILL_SLOPE 6.52, FFLUC_R_SQUARED 0.182, PBLUC_HILL_SLOPE 2.32, PBLUC_R_SQUARED 0.511, read-out: LUCIFERASE INFECTION ASSAY - IC50): 5.67 µM
